Assay results taken from ChEMBL document CHEMBL2057065, “The 3-Deoxy Analogue of α-GalCer: Disclosing the Role of the 4-Hydroxyl Group for CD1d-Mediated NKT Cell Activation” (ACS Med Chem Lett, 2011).
Calls of active or inactive are those of the source.

Experiments:
Mus musculus = species on record: Mus musculus; experiment: Immunostimulatory activity in mouse DN32.D3 NKT hybridoma cells assessed as IL-2 production after 16 hrs by ELISA; format: functional
Splenocyte [1] = experiment: Immunostimulatory activity in mouse splenocytes assessed as IL4 production at 8 ng/ml after 72 hrs by ELISA; format: functional, cell-based
Splenocyte [2] = experiment: Immunostimulatory activity in mouse splenocytes assessed as IFNgamma production at 8 ng/ml after 72 hrs by ELISA; format: functional, cell-based

Measured: Activity

CCCCCCCCCCCCCCCCCCCCCCCCCC(=O)N[C@@H](CO[C@H]1O[C@H](CO)[C@H](O)[C@H](O)[C@H]1O)[C@H](O)CCCCCCCCCCCCCCC
active: Mus musculus | Splenocyte [1] | Splenocyte [2]

CCCCCCCCCCCCCCCCCCCCCCCCCC(=O)N[C@@H](CO[C@H]1O[C@H](CO)[C@H](O)[C@H](O)[C@H]1O)C[C@H](O)CCCCCCCCCCCCCC
active: Mus musculus | Splenocyte [1] | Splenocyte [2]

CCCCCCCCCCCCCCCCCCCCCCCCCC(=O)N[C@@H](CO[C@H]1O[C@H](CO)[C@H](O)[C@H](O)[C@H]1O)[C@H](O)[C@H](O)CCCCCCCCCCCCCC
active: Mus musculus | Splenocyte [1] | Splenocyte [2]
